Test results published in PMC7000521, “Hazard Characterization of Synthetic Cathinones Using Viability, Monoamine Reuptake, and Neuronal Activity Assays” (Frontiers in Neuroscience, 2020).
Where two headings read alike, the source gives them in different places.

Key:
[1] = tested on: rat primary cortical cultures; parameters: method as in Zwartsen et al., 2019; settings: value [CI], published previously ref Zwartsen et al., 2019, cited from earlier work
hSERT = target: T1, hSERT (Homo sapiens, UniProt P31645); test: Monoamine uptake assay (fluorescent substrate), hSERT; type: cell-based
T1 construct: expressed in transfected cells
T1 sequence (P31645 whole entry): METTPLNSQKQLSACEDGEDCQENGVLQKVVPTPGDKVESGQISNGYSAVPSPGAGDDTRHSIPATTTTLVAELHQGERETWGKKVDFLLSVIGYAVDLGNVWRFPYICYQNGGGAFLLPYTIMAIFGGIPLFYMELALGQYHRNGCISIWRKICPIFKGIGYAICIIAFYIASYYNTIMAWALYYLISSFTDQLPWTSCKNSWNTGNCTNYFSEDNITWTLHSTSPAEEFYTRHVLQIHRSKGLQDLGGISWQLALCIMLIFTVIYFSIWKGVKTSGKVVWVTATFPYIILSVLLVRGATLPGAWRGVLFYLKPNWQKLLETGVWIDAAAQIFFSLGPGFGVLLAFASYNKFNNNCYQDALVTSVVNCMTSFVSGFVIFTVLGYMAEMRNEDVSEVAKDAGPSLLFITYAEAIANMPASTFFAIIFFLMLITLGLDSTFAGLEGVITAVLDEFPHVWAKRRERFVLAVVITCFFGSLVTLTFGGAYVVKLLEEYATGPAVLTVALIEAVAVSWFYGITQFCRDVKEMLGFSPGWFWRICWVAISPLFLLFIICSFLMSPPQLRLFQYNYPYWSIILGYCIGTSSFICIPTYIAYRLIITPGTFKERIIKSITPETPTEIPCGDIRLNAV
Method: (§1) Human embryonic kidney (HEK) 293 cells stably expressing human DAT, NET, or SERT (kindly provided by Dr. Hoener from F. Hoffmann-La Roche Ltd., Basel, Switzerland) were cultured as described in [Zwartsen et al. (2017)].
(§2) Uptake activity of hNET, hDAT, and hSERT was measured using the Neurotransmitter Transporter Uptake Assay Kit from MDS Analytical Technologies (Sunnyvale, CA, United States) as described in detail previously ([Zwartsen et al., 2017]). The kit contained a mixture consisting of a fluorescent substrate, which resembles the biogenic amine neurotransmitters, and a masking dye that extinguishes extracellular fluorescence. Uptake of the fluorescent substrate, a measure of neurotransmitter transporter function, increases intracellular fluorescence, while extracellular fluorescence is blocked by the masking dye ([Jorgensen et al., 2008]). […]
(§3) On day 0, HEK 293 cells were seeded (60,000 cells/well) in clear-bottom black-walled 96-well plates coated with poly-L-lysine (PLL, 50 mg/L). […] During incubation, intracellular fluorescence was measured every 3 min. […] Effects of 3-MMC, 4-MMC, 4-MEC, methylone, pentedrone, MDPV, 3-MMCinternet, and 4-MECinternet were measured at final concentrations of 0.03–300/1000 μM. Fluorescence was measured with a microplate reader (Tecan Infinite M200 microplate; Tecan Trading Männedorf, Switzerland) at 37°C at 430/515 nm excitation/emission wavelength. […]

hNET = target: T2, hNET (Homo sapiens, UniProt P23975); test: Monoamine uptake assay (fluorescent substrate), hNET; type: cell-based
T2 construct: expressed in transfected cells
T2 sequence (P23975 whole entry): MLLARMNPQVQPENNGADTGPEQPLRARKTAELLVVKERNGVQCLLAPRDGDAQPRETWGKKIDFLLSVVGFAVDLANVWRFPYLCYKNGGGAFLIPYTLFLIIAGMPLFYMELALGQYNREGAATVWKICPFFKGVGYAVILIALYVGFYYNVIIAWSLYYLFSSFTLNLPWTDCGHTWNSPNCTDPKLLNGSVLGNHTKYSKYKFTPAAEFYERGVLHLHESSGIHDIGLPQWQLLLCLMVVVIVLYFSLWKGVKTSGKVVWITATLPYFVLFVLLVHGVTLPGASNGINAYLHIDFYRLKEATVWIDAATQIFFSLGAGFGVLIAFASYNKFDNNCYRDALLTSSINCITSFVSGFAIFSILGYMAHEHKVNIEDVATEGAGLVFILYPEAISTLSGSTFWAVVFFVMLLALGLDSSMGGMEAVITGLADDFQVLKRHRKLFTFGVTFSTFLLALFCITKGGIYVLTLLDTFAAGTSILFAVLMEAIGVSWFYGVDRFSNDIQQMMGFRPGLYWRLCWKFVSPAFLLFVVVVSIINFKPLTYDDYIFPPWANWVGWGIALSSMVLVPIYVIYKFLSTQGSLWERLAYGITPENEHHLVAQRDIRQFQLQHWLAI
Method: as §1, §2, §3

Row | Structure (SMILES) | IC50 ([1]; acute exposure 30 min, read-out: Neuronal activity IC50, mean burst rate (MBR), acute) [µM] | IC50 ([1]; acute exposure 30 min, read-out: Neuronal activity IC50, mean network burst rate (MNBR), acute) [µM] | IC50 ([1]; acute exposure 30 min, read-out: Neuronal activity IC50, mean spike rate (MSR), acute) [µM] | IC50 ([1]; prolonged exposure 4.5 h, read-out: Neuronal activity IC50, mean burst rate (MBR), prolonged) [µM] | IC50 (hSERT) [µM] | IC50 (hNET) [µM]
1 | CCCC(C(=O)c1ccc2c(c1)OCO2)N1CCCC1 (stereo not shown) [MDPV, 1-(1,3-benzodioxol-5-yl)-2-pyrro lidin-1-ylpentan-1-one] | 40 | 35 | 30 | 61 | 4.5 | 0.03
2 | CCCC(NC)C(=O)c1ccccc1 (stereo not shown) [Pentedrone, 2-(methylamino)-1-phenyl pentan-1-one] | – | – | – | – | 16 | –
